Assay results: publication PMC10341786 (International Journal of Molecular Sciences, 2023)

Key:
TBEV = experiment: microbe, parasite or virus in culture; assay type: cell-based, Tick-borne encephalitis virus strain Absettarov; settings: Tick-borne encephalitis virus, PEK, read-out: TBEV EC50
WNV = experiment: microbe, parasite or virus in culture; assay type: cell-based, West Nile virus strain Strix nebulosa-12; settings: for EC50: West Nile virus, Vero, read-out: WNV EC50
YFV = experiment: microbe, parasite or virus in culture; assay type: cell-based, yellow fever virus strain 17D; settings: Yellow fever virus, read-out: YFV EC50
in vitro [1] = settings: pig
in vitro [2] = settings: African green monkey
in vitro [3] = settings: African green monkey; remark: listed apart in the source
in vitro [4] = settings: pig; remark: listed apart in the source
DENV-1 = settings: cited from earlier work
DENV-2 = settings: cited from earlier work
DENV-3 = settings: cited from earlier work

O=S(=O)(Cc1ccccc1)NC1=NOC2(CCCCCCC2)C1 [3b]
EC50 (TBEV): 13 ± 8 µM | EC50 (WNV): 9.9 ± 1.5 µM | EC50 (YFV): 24 ± 11 µM | CC50 (in vitro [1]): > 50 µM | CC50 (in vitro [2]): > 50 µM | CC50 (in vitro [3]): > 50 µM | CC50 (in vitro [4]): > 50 µM

O=S(=O)(NC1=NOC2(CCCCCCC2)C1)c1ccc2ccccc2c1 [3j]
EC50 (TBEV): 20 ± 11 µM | EC50 (WNV): 20.3 ± 0.3 µM | acute and chronic cytotoxicity in Vero cells (in words) (Vero cells): both acute and chronic cytotoxicity | CC50 (in vitro [1]): > 50 µM | CC50 (in vitro [4]): > 50 µM

O=[N+]([O-])c1ccccc1S(=O)(=O)N(C1=NOC2(CCCCCCC2)C1)S(=O)(=O)c1ccccc1[N+](=O)[O-] [4h, 2-Nitro-N-((2-nitrophenyl)sulfonyl)-N-(1-oxa-2-azaspiro[4.7]dodec-2-en-3-yl)benzenesulfonamide]
EC50 (TBEV): 20 ± 11 µM | EC50 (WNV): 7.8 ± 1 µM | melting point: 155 to 157 °C | acute and chronic cytotoxicity in Vero cells (in words) (Vero cells): only acute toxic | CC50 (in vitro [1]): > 50 µM | CC50 (in vitro [4]): > 50 µM

O=[N+]([O-])c1ccc(S(=O)(=O)N(C2=NOC3(CCCCCCC3)C2)S(=O)(=O)c2ccc([N+](=O)[O-])cc2)cc1 [4i, 4-Nitro-N-((4-nitrophenyl)sulfonyl)-N-(1-oxa-2-azaspiro[4.7]dodec-2-en-3-yl)benzenesulfonamide]
EC50 (TBEV): 2 ± 0.5 µM | EC50 (WNV): 5.3 ± 1 µM | melting point: 178 to 180 °C | acute and chronic cytotoxicity in Vero cells (in words) (Vero cells): both acute and chronic cytotoxicity | CC50 (in vitro [1]): > 50 µM | CC50 (in vitro [4]): > 50 µM

O=[N+]([O-])c1ccc(S(=O)(=O)N(C2=NOC3CCCCCCC23)S(=O)(=O)c2ccc([N+](=O)[O-])cc2)cc1 (centres unmarked) [5i, 4-Nitro-N-((4-nitrophenyl)sulfonyl)-N-(3a,4,5,6,7,8,9,9a-octahydrocycloocta[d]isoxazol-3-yl)benzenesulfonamide]
EC50 (TBEV): 19 ± 4 µM | EC50 (WNV): 19 ± 11 µM | melting point: 139 to 140 °C | cytotoxicity against PEK cells during 7 days of incubation (in words) (PEK cells): slightly toxic | CC50 (in vitro [1]): 41 ± 1.8 µM | CC50 (in vitro [2]): > 50 µM | CC50 (in vitro [3]): > 50 µM | CC50 (in vitro [4]): > 50 µM

O=S(=O)(c1ccc2ccccc2c1)N(C1=NOC2CCCCCCC12)S(=O)(=O)c1ccc2ccccc2c1 (centres unmarked) [5j, N-(Naphthalen-2-ylsulfonyl)-N-(3a,4,5,6,7,8,9,9a-octahydrocycloocta[d]isoxazol-3-yl)naphthalene-2-sulfonamide]
EC50 (TBEV): 10 ± 2.4 µM | EC50 (WNV): 5.9 ± 1.8 µM | melting point: 160 to 162 °C | CC50 (in vitro [1]): > 50 µM | CC50 (in vitro [2]): > 50 µM | CC50 (in vitro [3]): > 50 µM | CC50 (in vitro [4]): > 50 µM

O=S(=O)(c1cccs1)N(C1=NOC2CCCCCCC12)S(=O)(=O)c1cccs1 (centres unmarked) [5k, N-(3a,4,5,6,7,8,9,9a-Octahydrocycloocta[d]isoxazol-3-yl)-N-(thiophen-2-ylsulfonyl)thiophene-2-sulfonamide]
EC50 (TBEV): 20 ± 3 µM | EC50 (WNV): 18 ± 4 µM | melting point: 131 to 132 °C | acute and chronic cytotoxicity in Vero cells (in words) (Vero cells): both acute and chronic cytotoxicity | CC50 (in vitro [1]): > 50 µM | CC50 (in vitro [4]): > 50 µM

O=S(=O)(c1cccnc1)N(C1=NOC2CCCCCCC12)S(=O)(=O)c1cccnc1 (centres unmarked) [5l, N-(3a,4,5,6,7,8,9,9a-Octahydrocycloocta[d]isoxazol-3-yl)-N-(pyridin-3-ylsulfonyl)pyridine-3-sulfonamide]
EC50 (TBEV): 36 ± 4 µM | anti-WNV activity (in words) (WNV): complete loss of anti-WNV activity | EC50 (WNV): > 50 µM | melting point: 150 to 151 °C | CC50 (in vitro [1]): > 50 µM | CC50 (in vitro [2]): > 50 µM | CC50 (in vitro [3]): > 50 µM | CC50 (in vitro [4]): > 50 µM

CC(C)CCN1C(=O)[C@]2(CC(=O)Nc3c2nnn3[C@@H](C)c2ccc(Cl)cc2)c2cc(Cl)ccc21 [JMX0254]
EC50 (DENV-1): 0.78 µM | EC50 (DENV-2): 0.16 µM | EC50 (DENV-3): 0.035 µM
